In article PMC8571282 (Nature Communications, 2021):
“And” between values parts separate entries of the source, which are not always exact repeats. Identical values can stand only once. Like-named read-outs stand apart in the source and are kept apart here.

What was measured:
[1] = test system: SARS-CoV-2 CA/2020 (α, lineage B.1.1.7); experiment: microbe, parasite or virus in culture; type: cell-based; details: Severe acute respiratory syndrome coronavirus 2, Vero C1008; CA/2020, VeroE6, mean n=3
[2] = set-up: method as in Mackman et al 2021 (JMC 2021, 64(8), 5001-5017); details: cynomolgus macaques, ref Mackman et al 2021 (JMC 2021, 64(8), 5001-5017); cited from earlier work
[3] = test system: well-differentiated primary human airway epithelium cultures; type: cell-based
in vitro [4] = details: human
[5] = test system: SARS-CoV-2-Nluc (WA1/2020-nano luciferase); experiment: microbe, parasite or virus in culture; type: cell-based
[6] = several species; cited from earlier work
[7] = test system: SARS-CoV-2 gamma isolate (BZ/2021, lineage P.1); experiment: microbe, parasite or virus in culture; type: cell-based; details: Severe acute respiratory syndrome coronavirus 2
in vitro [8] = details: human, % cell viability, HEp-2, 3.704 µM, 72 h
[9] = Single-dose plasma pharmacokinetics in ferrets; details: ferret, GS-441524 IV 20 mg/kg, 20 mg/kg
[10] = Cytotoxicity assay (PrestoBlue), “F2” HAE; details: human
in vitro [11] = details: human; remark: listed apart in the source
[12] = Cytotoxicity assay (PrestoBlue), HEp-2; details: human, HEp-2 cells
[13] = test system: SARS-CoV-2 BZ/2021 (γ, lineage P.1); experiment: microbe, parasite or virus in culture; type: cell-based; details: Severe acute respiratory syndrome coronavirus 2, Vero C1008; BZ/2021, VeroE6, mean n=3
[14] = Cytotoxicity assay (PrestoBlue), BHK-21; details: hamster, BHK-21 cells
[15] = Cytotoxicity assay (PrestoBlue), “M6” HAE; details: human
“M6” primary HAE cells = experiment: Cytotoxicity assay (PrestoBlue), “M6” HAE; details: M6 HAE, 72 h
[16] = test system: SARS-CoV-2 WA1/2020 (lineage A); experiment: microbe, parasite or virus in culture; type: cell-based
[17] = test system: SARS-CoV-2 SA/2020 (β, lineage B.1.351); experiment: microbe, parasite or virus in culture; type: cell-based; details: Severe acute respiratory syndrome coronavirus 2, Vero C1008; SA/2020, VeroE6, mean n=3
“F3” primary HAE cells = experiment: Cytotoxicity assay (PrestoBlue), “F3” HAE; details: F3 HAE, 72 h
[18] = Cytotoxicity assay (PrestoBlue), “F3” HAE; details: human
[19] = Cytotoxicity assay (PrestoBlue), HCT-8; details: human, HCT-8 cells
[20] = set-up: method as in Mackman et al 2021 (JMC 2021, 64(8), 5001-5017); details: rats, ref Mackman et al 2021 (JMC 2021, 64(8), 5001-5017); cited from earlier work
[21] = Cytotoxicity assay (PrestoBlue), “M2” HAE; details: human
[22] = Cytotoxicity assay (PrestoBlue), VeroE6; details: African green monkey, VeroE6 cells
VeroE6 cells = experiment: Cytotoxicity assay (PrestoBlue), VeroE6; details: 72 h

N#C[C@@]1(c2ccc3c(N)ncnn23)O[C@H](CO)[C@@H](O)[C@H]1O [GS-441524]
EC50 [1]: 110 nM
oral F [2]: 3.4%
basolateral drug concentration at which epithelium integrity (TEER) was fully preserved [3]: ≥ 3 µM
viability at 72 h, 3.704 µM (in vitro [4]; female, % cell viability): 90%
CC50 at 72 h (in vitro [4]): > 100000 nM
viability at 72 h, 100 µM (in vitro [4]; % cell viability): 62%
A549-hACE2 SARS-CoV-2 Nluc (EC50 determination), normalized signal ([5]; Conc 0.005 µM, replicate values of the experiments): 114.03
A549-hACE2 SARS-CoV-2 Nluc (EC50 determination), normalized signal ([5]; Conc 0.02 µM, replicate values of Exp 1-6): 66.74 and 93.22 and 117.07 and 119.81 and 81.21
A549-hACE2 SARS-CoV-2 Nluc (EC50 determination), normalized signal ([5]; Conc 0.07 µM, replicate values of Exp 1-6): 114.55 and 112.96 and 134.59 and 90.75
A549-hACE2 SARS-CoV-2 Nluc (EC50 determination), normalized signal ([5]; Conc 0.21 µM, replicate values of Exp 1-6): 92.40 and 126.15
A549-hACE2 SARS-CoV-2 Nluc (EC50 determination), normalized signal ([5]; Conc 3.333 µM, replicate values of the experiments): 14.96 and 23.34 and 25.42
A549-hACE2 SARS-CoV-2 Nluc (EC50 determination), normalized signal ([5]; Conc 5.56 µM, replicate values of Exp 1-6): 3.54 and 6.01 and 4.94 and 3.43 and 3.57 and 2.25 and 0.47 and 0.46 and 0.35 and 0.41 and 5.69
A549-hACE2 SARS-CoV-2 Nluc (EC50 determination), normalized signal ([5]; Conc 10.000 µM, replicate values of the experiments): 0.35 and 0.30 and 0.32 and 0.31
A549-hACE2 SARS-CoV-2 Nluc (EC50 determination), normalized signal ([5]; Conc 16.67 µM, replicate values of Exp 1-6): 1.67 and 0.36 (2×) and 0.34 and 1.12 and 1.72 and 1.07 and 0.18 (2×) and 0.21 and 0.23 and 0.31
A549-hACE2 SARS-CoV-2 Nluc (EC50 determination), normalized signal ([5]; Conc 50.00 µM, replicate values of Exp 1-6): 0.89 and 0.17 (2×) and 0.16 (3×) and 0.55 and 0.87 and 0.59 and 0.19 and 0.20 and 0.18
EC50 ([5]; Severe acute respiratory syndrome coronavirus 2, WA1/2020-nano luciferase, A549-ACE2, mean ± SD): 1400 ± 900 nM
oral bioavailability (in words) [6]: poor oral bioavailability
EC50 [7]: 2830 nM
viability at 72 h, 3.704 µM (in vitro [8]): 93%
plasma concentration of GS-441524 ([9]; 0.25 h): 40.5 and 46.6 and 24.1
plasma concentration of GS-441524 ([9]; 0.48 h): 62.4 and 57.2 and 43
plasma concentration of GS-441524 ([9]; 0.58 h): 51.5 and 48.2 and 37.8
plasma concentration of GS-441524 ([9]; 4 h): 8.65 and 7.17
plasma concentration of GS-441524 ([9]; 8 h): 2.1 and 1.85 and 1.83
plasma concentration of GS-441524 ([9]; 12 h): 0.669 and 0.467 and 0.448
viability at 72 h, 0.046 µM ([10]; female, “F2” primary human airway epithelial (HAE) cells, % cell viability, F2 HAE, 0.046 µM): 92%
viability at 72 h, 100 µM ([10]; % cell viability, F2 HAE, 100 µM): 86%
CC50 at 72 h ([10]; CC50, “F2” HAE): > 100000 nM
CC50 at 48 h (in vitro [11]): > 50000 nM
viability at 72 h, 0.046 µM ([12]; % cell viability, HEp-2, 0.046 µM, 72 h): 52%
viability at 72 h, 100 µM ([12]; % cell viability, HEp-2, 100 µM, 72 h): 51%
CC50 at 72 h ([12]; CC50, HEp-2, 72 h): > 100000 nM
EC50 [13]: 550 nM
CC50 at 72 h [14]: > 100000 nM
viability at 72 h, 0.046 µM ([14]; % cell viability, BHK-21, 0.046 µM, 72 h): 64%
viability at 72 h, 1.235 µM ([14]; % cell viability, BHK-21, 1.235 µM, 72 h): 87%
CC50 at 72 h [15]: > 100000 nM
% cell viability (“M6” primary HAE cells; 0.046 µM): 87%
% cell viability (“M6” primary HAE cells; 3.704 µM): 86%
EC50 ([16]; Severe acute respiratory syndrome coronavirus 2, Vero C1008, WA1/2020, VeroE6, mean n=3): 680 nM
Virus yield reduction ([16]; WA1/2020, VeroE6, 5.55556 µM, vehicle = 0): -3.43
EC50 [17]: 340 nM
% cell viability (“F3” primary HAE cells; 0.046 µM): 90%
% cell viability (“F3” primary HAE cells; 100 µM): 86% and 74%
viability at 72 h, 0.046 µM ([18]; female, “F3” primary human airway epithelial (HAE) cells, % cell viability, F3 HAE, 0.046 µM): 87%
viability at 72 h, 100 µM ([18]; % cell viability, F3 HAE, 100 µM): 84%
CC50 at 72 h ([18]; CC50, “F3” HAE): > 100000 nM
viability at 72 h, 0.046 µM ([19]; % cell viability, HCT-8, 0.046 µM, 72 h): 74%
viability at 72 h, 1.235 µM ([19]; % cell viability, HCT-8, 1.235 µM, 72 h): 89%
viability at 72 h, 100 µM ([19]; % cell viability, HCT-8, 100 µM, 72 h): 62%
CC50 at 72 h ([19]; CC50, HCT-8, 72 h): > 100000 nM
oral F [20]: 12%
CC50 at 72 h [21]: > 100000 nM
CC50 at 72 h [22]: > 100000 nM
viability at 72 h, 0.046 µM ([22]; % cell viability, VeroE6, 0.046 µM, 72 h): 60%
viability at 72 h, 1.235 µM ([22]; % cell viability, VeroE6, 1.235 µM, 72 h): 75%
viability at 72 h, 3.704 µM ([22]; % cell viability, VeroE6, 3.704 µM, 72 h): 84%
viability at 72 h, 100 µM ([22]; % cell viability, VeroE6, 100 µM, 72 h): 66%
% cell viability (VeroE6 cells; VeroE6, 0.046 µM, 0.046 µM): 56% and 59%
% cell viability (VeroE6 cells; VeroE6, 1.235 µM, 1.235 µM): 91% and 82%
% cell viability (VeroE6 cells; VeroE6, 3.704 µM, 3.704 µM): 92%
% cell viability (VeroE6 cells; VeroE6, 100 µM, 100 µM): 59%
